Measured values as given in PubChem BioAssay (NCI).
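Assay format: 96-well plates, 48-hour exposure. At the TGI there is no net growth.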

Legend:
Assay in all cases: NCI tumour cell line growth inhibition, 48 h
[1] = test system: 786-0 renal
[2] = test system: A498 renal
[3] = test system: A549 NSCLC
[4] = test system: ACHN renal
[5] = test system: BT-549 breast
[6] = test system: CAKI-1 renal
[7] = test system: CCRF-CEM leukemia
[8] = test system: COLO 205 colon
[9] = test system: DU-145 prostate
[10] = test system: EKVX NSCLC
[11] = test system: HCC-2998 colon
[12] = test system: HCT-116 colon
[13] = test system: HCT-15 colon
[14] = test system: HL-60(TB) leukemia
[15] = test system: HOP-62 NSCLC
[16] = test system: HOP-92 NSCLC
[17] = test system: HS 578T breast
[18] = test system: HT29 colon
[19] = test system: IGROV1 ovarian
[20] = test system: K-562 leukemia
[21] = test system: KM12 colon
[22] = test system: LOX IMVI melanoma
[23] = test system: M14 melanoma
[24] = test system: MALME-3M melanoma
[25] = test system: MCF7 breast
[26] = test system: MDA-MB-231 breast
[27] = test system: MDA-MB-435
[28] = test system: MDA-N
[29] = test system: MOLT-4 leukemia
[30] = test system: NCI-H226 lung
[31] = test system: NCI-H23 lung
[32] = test system: NCI-H460 lung
[33] = test system: NCI-H522 lung
[34] = test system: NCI/ADR-RES ovarian
[35] = test system: OVCAR-3 ovarian
[36] = test system: OVCAR-4 ovarian
[37] = test system: OVCAR-8 ovarian
[38] = test system: PC-3 prostate
[39] = test system: RPMI-8226 leukemia
[40] = test system: SF-268 CNS
[41] = test system: SF-295 CNS
[42] = test system: SF-539 CNS
[43] = test system: SK-MEL-28 melanoma
[44] = test system: SK-MEL-5 melanoma
[45] = test system: SK-OV-3 ovarian
[46] = test system: SN12C renal
[47] = test system: SNB-19 CNS
[48] = test system: SR leukemia
[49] = test system: SW-620 colon
[50] = test system: T-47D breast
[51] = test system: TK-10 renal
[52] = test system: U251 CNS
[53] = test system: UACC-257 melanoma
[54] = test system: UO-31 renal
[55] = test system: OVCAR-5 ovarian
[56] = test system: RXF 393 renal
[57] = test system: SK-MEL-2 melanoma
[58] = test system: SNB-75 CNS
[59] = test system: UACC-62 melanoma

## CNc1ccc(S(=O)Nc2ccc(OC)cc2)cc1 (centres undefined)
[1]
  TGI: > 100 µM
[2]
  TGI: > 100 µM
[3]
  TGI: > 100 µM
[4]
  TGI: > 100 µM
[5]
  TGI: > 100 µM
[6]
  TGI: > 100 µM
[7]
  TGI: > 100 µM
[8]
  TGI: 91.4 µM
[9]
  TGI: > 100 µM
[10]
  TGI: > 100 µM
[11]
  TGI: > 100 µM
[12]
  TGI: > 100 µM
[13]
  TGI: > 100 µM
[14]
  TGI: > 100 µM
[15]
  TGI: > 100 µM
[16]
  TGI: > 100 µM
[17]
  TGI: > 100 µM
[18]
  TGI: > 100 µM
[19]
  TGI: > 100 µM
[20]
  TGI: > 100 µM
[21]
  TGI: 22.2 µM
[22]
  TGI: > 100 µM
[23]
  TGI: > 100 µM
[24]
  TGI: > 100 µM
[25]
  TGI: > 100 µM
[26]
  TGI: > 100 µM
[27]
  TGI: 70.1 µM
[28]
  TGI: > 100 µM
[29]
  TGI: > 100 µM
[30]
  TGI: > 100 µM
[31]
  TGI: > 100 µM
[32]
  TGI: > 100 µM
[33]
  TGI: > 100 µM
[34]
  TGI: > 100 µM
[35]
  TGI: > 100 µM
[36]
  TGI: > 100 µM
[37]
  TGI: > 100 µM
[38]
  TGI: > 100 µM
[39]
  TGI: > 100 µM
[40]
  TGI: > 100 µM
[41]
  TGI: > 100 µM
[42]
  TGI: > 100 µM
[43]
  TGI: > 100 µM
[44]
  TGI: > 100 µM
[45]
  TGI: > 100 µM
[46]
  TGI: > 100 µM
[47]
  TGI: > 100 µM
[48]
  TGI: > 100 µM
[49]
  TGI: > 100 µM
[50]
  TGI: > 100 µM
[51]
  TGI: > 100 µM
[52]
  TGI: > 100 µM
[53]
  TGI: > 100 µM
[54]
  TGI: 34.8 µM

## C=CC(O)C#Cc1cnc(OC)nc1OC (centres undefined)
[1]
  TGI: > 100 µM
[2]
  TGI: 33 µM
[3]
  TGI: > 100 µM
[4]
  TGI: > 100 µM
[5]
  TGI: > 100 µM
[6]
  TGI: > 100 µM
[7]
  TGI: 47.9 µM
[8]
  TGI: > 100 µM
[9]
  TGI: > 100 µM
[10]
  TGI: > 100 µM
[11]
  TGI: > 100 µM
[12]
  TGI: > 100 µM
[13]
  TGI: > 100 µM
[14]
  TGI: 43.9 µM
[15]
  TGI: > 100 µM
[16]
  TGI: > 100 µM
[17]
  TGI: > 100 µM
[18]
  TGI: > 100 µM
[19]
  TGI: > 100 µM
[20]
  TGI: 66.6 µM
[21]
  TGI: > 100 µM
[22]
  TGI: > 100 µM
[23]
  TGI: > 100 µM
[25]
  TGI: > 100 µM
[26]
  TGI: > 100 µM
[27]
  TGI: > 100 µM
[28]
  TGI: > 100 µM
[29]
  TGI: > 100 µM
[30]
  TGI: > 100 µM
[31]
  TGI: > 100 µM
[32]
  TGI: > 100 µM
[33]
  TGI: > 100 µM
[34]
  TGI: > 100 µM
[35]
  TGI: > 100 µM
[36]
  TGI: > 100 µM
[55]
  TGI: > 100 µM
[37]
  TGI: > 100 µM
[38]
  TGI: > 100 µM
[56]
  TGI: > 100 µM
[40]
  TGI: > 100 µM
[41]
  TGI: > 100 µM
[42]
  TGI: > 100 µM
[57]
  TGI: > 100 µM
[43]
  TGI: > 100 µM
[44]
  TGI: > 100 µM
[46]
  TGI: > 100 µM
[47]
  TGI: > 100 µM
[58]
  TGI: > 100 µM
[48]
  TGI: > 100 µM
[49]
  TGI: > 100 µM
[50]
  TGI: > 100 µM
[51]
  TGI: > 100 µM
[52]
  TGI: > 100 µM
[53]
  TGI: > 100 µM
[59]
  TGI: > 100 µM
[54]
  TGI: > 100 µM

## CC(C)(C)c1cc2c(O)c(c1)C(c1ccccc1)c1cc(C(C)(C)C)cc(c1O)Cc1cc(C(C)(C)C)cc(c1O)C(c1ccccc1)c1cc(C(C)(C)C)cc(c1O)C2 (centres undefined)
[1]
  TGI: > 100 µM
[2]
  TGI: > 100 µM
[3]
  TGI: > 100 µM
[4]
  TGI: > 100 µM
[5]
  TGI: > 100 µM
[6]
  TGI: > 100 µM
[7]
  TGI: > 100 µM
[8]
  TGI: > 100 µM
[9]
  TGI: > 100 µM
[10]
  TGI: > 100 µM
[11]
  TGI: > 100 µM
[12]
  TGI: > 100 µM
[13]
  TGI: > 100 µM
[14]
  TGI: > 100 µM
[15]
  TGI: > 100 µM
[16]
  TGI: > 100 µM
[17]
  TGI: > 100 µM
[18]
  TGI: > 100 µM
[19]
  TGI: > 100 µM
[20]
  TGI: > 100 µM
[21]
  TGI: > 100 µM
[22]
  TGI: > 100 µM
[23]
  TGI: > 100 µM
[25]
  TGI: > 100 µM
[26]
  TGI: > 100 µM
[27]
  TGI: > 100 µM
[28]
  TGI: > 100 µM
[29]
  TGI: > 100 µM
[31]
  TGI: > 100 µM
[32]
  TGI: > 100 µM
[33]
  TGI: > 100 µM
[34]
  TGI: > 100 µM
[35]
  TGI: > 100 µM
[36]
  TGI: > 100 µM
[55]
  TGI: > 100 µM
[37]
  TGI: > 100 µM
[38]
  TGI: > 100 µM
[56]
  TGI: > 100 µM
[40]
  TGI: > 100 µM
[41]
  TGI: > 100 µM
[42]
  TGI: > 100 µM
[57]
  TGI: > 100 µM
[43]
  TGI: > 100 µM
[44]
  TGI: > 100 µM
[46]
  TGI: > 100 µM
[47]
  TGI: > 100 µM
[48]
  TGI: > 100 µM
[49]
  TGI: > 100 µM
[50]
  TGI: > 100 µM
[51]
  TGI: > 100 µM
[52]
  TGI: > 100 µM
[53]
  TGI: > 100 µM
[59]
  TGI: > 100 µM
[54]
  TGI: > 100 µM
